For this data set, the system named is skin. The following applies: 50 volunteers, undiluted, patch 48 hours, read after 48 hours and after 72 hours.

`CCCCCCCCCCCCOS(=O)(=O)[O-].[Na+]` [SDS, Sodium dodecyl sulphate]: the positive reactions worked out at 11 subjects.
